Where a name gives a salt, the structure may show the parent alone. Read-outs that look alike come from different tables or passages of the source.
Columns and labels:
[1] = Human hepatocyte clearance (HHEP CL); type: in vitro ADME; parameters: CLint scaled / half-life: dose or concentration left out as unconfirmed; details: both sexes
Experimental: Suspensions of human hepatocytes (from 10 mixed gender human donors, final concentration 0.5×10^6 cell/mL) in Williams' E medium were incubated for 90 min with a test compound (0.90% acetonitrile and 0.10% DMSO, final concentration […]) and positive controls (7-Ethoxycoumarin, 7-Hydroxycoumarin, 0.90% acetonitrile and 0.10% DMSO, final concentration […]), with constant shaking at about 600 rpm at 37° C. in an incubator at 5% CO2 and 95% humidity. The total volume of incubation was 200 μl. A sample ([…]) was taken out at TO, 15, 30, 60 and 90 min, which was added intermediately to the ice-cold stop solution (acetonitrile with 200 ng/mL of tobutamide and labetalol as internal standard) (125 μl), and vortexed at 500 rpm for 10 min, centrifuged at 3220×g for 20 min at 4° C. Analytical plates are sealed and stored at 4° C. until LCMS analysis. Viability of hepatocytes at pre-incubation was determined to be 84.5%.
(§1) Human liver microsome clearance assay assess metabolism by the cytochrome P450 system (phase I enzymes). These enzymes oxidize substrates by incorporating oxygen atoms into hydrocarbons, thus causing the introduction of hydroxyl groups, or N- O- and S-dealkylation of substrates and forming more polar products easier to be cleared. Human hepatocyte clearance assay measures more broadly the overall cellular metabolism of the test compound (phase I and phase II enzyme pathways). Phase II enzymes catalyze the conjugation reaction of xenobiotic metabolites and charged species, such as glutathione, sulfate, glycine, or glucuronic acid to form even more polar compounds for easier clearance.

MDA-MB-468 = experiment: CTG assay (CellTiter-Glo cell viability), MDA-MB-468, payload compounds; type: cell-based; details: Homo sapiens
Excerpt: (§2) The CTG assay is a method of determining the number of viable cells in culture based on quantitation of the ATP present, an indicator of metabolically active cells. The cell assay requires the addition of a single reagent, Cell Titer Glo, in which cells are lysed and generation of a luminescent signal is produced. The luminescent signal is proportional to the amount of ATP present. The amount of ATP is directly proportional to the number of cells present in culture. For our assay, cells were ensured to be in log-phase for either Jeko-1 or MDA-MB-468. Cells were transferred to 96 wells and treated with compounds in three-fold serial dilution starting from 1 μM to 0.0000508 μM (10 points dilution), for 72 h. Cell viability was analyzed with CellTiter-Glo® Luminescent Cell Viability Assay (Promega) following manufactures' instruction. Percentage of viable cells in each compound concentration was determined by normalizing with the luminescence of vehicle control and plotted into percentage of viability versus dose response curve by nonlinear fit in GraphPad Prism software.

[2] = Human liver microsome clearance (HLM CL); type: in vitro ADME
Experimental: Working solution was prepared by adding 5 μL of compound and control stock solution (10 mM in dimethyl sulfoxide, DMSO) to 495 μL of acetonitrile (ACN) (intermediate solution concentration: 100 μM, 99% CAN and 1% DMSO. The appropriate concentrations of microsome working solutions were prepared in 100 mM potassium phosphate buffer. After reaction plates containing mixtures of compound and microsomes were pre-incubated at 37° C. for 10 min, […] of 2 mM of NADPH and 2 mM of MgCl2 solution was added to start the reaction. The final concentrations of incubation medium were as follows: microsome—0.5 mg protein/mL, test compound/control […], NADPH—1 mM, MgCl2 —1 mM, acetonitrile 0.99%, DMSO 0.01%. Incubations were performed at 37° C. for 60 min. Samples were taken out at TO, T5, T15, T30, T45 and T60, which was added intermediately to the ice-cold stop solution (acetonitrile with 200 ng/mL of tobutamide and labetalol as internal standard) (125 μl), shaken for 10 min, centrifuged at 4000 rpm for 20 min at 4° C. Analytical plates were analyzed by LCMS.
as §1

Jeko-1 = experiment: CTG assay (CellTiter-Glo cell viability), Jeko-1, payload compounds; type: cell-based; details: Homo sapiens
Excerpt: as §2

[3] = PAMPA (Parallel Artificial Membrane Permeability Assay); type: physicochemical
Excerpt: PAMPA is a method which determines the permeability of substances from a donor compartment, through a lipid-infused artificial membrane into an acceptor compartment. See Ottaviani, G.; Martel, S.; Carrupt, P-A. “Parallel Artificial Membrane Permeability Assay: A New Membrane for the Fast Prediction of Passive Human Skin Permeability”, Journal of Medicinal Chemistry, 2006, 49 (13), 3948-3954). A multi-well microtitre plate is used for the donor and a membrane/acceptor compartment is placed on top; the whole assembly is commonly referred to as a “sandwich”. At the beginning of the test, the drug is added to the donor compartment, and the acceptor compartment is drug-free. After an incubation period which may include stirring, the sandwich is separated, and the amount of drug is measured in each compartment. Mass balance allows calculation of drug that remains in the membrane.
The PAMPA was performed by Pion Inc using the GIT-0 lipid and 5 μM donor solution in pH 5.0 and pH 7.4 PRISMA buffer (containing 0.05% DMSO). The higher PAMPA data has been associated with better bystander killing. (Ogitani Y.; Hagihara K.; Oitate, M.; Naito, H.; Agatsuma T. “Bystander killing effect of DS-8201a, a novel anti-human epidermal growth factor receptor 2 antibody-drug conjugate, in tumors with human epidermal growth factor receptor 2 heterogeneity” Cancer Science, 2016, 107 (7), 1039-1046).

[4] = MDA-MB-468, 72 h, CellTiter-Glo, read-out: MDA-MB-468 IC50
[5] = JeKo-1, 72 h, CellTiter-Glo, read-out: JeKo-1 IC50
[6] = human hepatocytes, 90 min incubation, read-out: HHEP (T1/2)
[7] = human hepatocytes, 90 min incubation, read-out: HHEP Cl (human hepatocytes intrinsic clearance)
[8] = human liver microsomes 0.5 mg protein/mL, NADPH, 60 min, read-out: HLM (T1/2)
[9] = human liver microsomes 0.5 mg protein/mL, NADPH, 60 min, read-out: HLM Cl (human liver microsome clearance)
[10] = pH 5.0 PRISMA buffer, GIT-0 lipid, 5 μM donor solution, read-out: PAMPA Pe pH 5.0
[11] = pH 7.4 PRISMA buffer, GIT-0 lipid, 5 μM donor solution, read-out: PAMPA Pe pH 7.4

SMILES	CLint scaled ([1]; human, hepatocytes)	half-life ([1]; human, hepatocytes)	IC50 (MDA-MB-468; [4])	CLint scaled ([2]; human, microsomes)	half-life ([2]; human, microsomes)	IC50 (Jeko-1; [5])	Papp at 5 μM ([3]; pH 5)	Papp at 5 μM ([3]; pH 7.4)	half-life [1, 6]	CLint scaled [1, 7]	half-life [2, 8]	CLint scaled [2, 9]	Papp at 5 μM [3, 10]	Papp at 5 μM [3, 11]	CLint scaled ([1]; human hepatocytes in suspension, human hepatocytes, 90 min incubation, read-out: HHEP Cl (human hepatocytes intrinsic clearance))	IC50 (MDA-MB-468; MDA-MB-468, 72 h, read-out: MDA-MB-468 IC50 (nM))	IC50 (Jeko-1; JeKo-1, 72 h, read-out: JeKo-1 IC50 (nM))	Papp ([3]; pH 5)	Papp ([3]; pH 7.4)
CC[C@@]1(O)C(=O)OCc2c1cc1n(c2=O)Cc2c-1nc1cc(F)c(C)c3c1c2[C@@](C)(N)CC3 (single isomer, unassigned) [Compound 8-71, hydrochloride]	81.7 mL/min/kg	47 min	6.1 nM	41.9 mL/min/kg	30 min	0.44 nM	67.7 ×10⁻⁶ cm/s	8.6 ×10⁻⁶ cm/s											
CC[C@@]1(O)C(=O)OCc2c1cc1n(c2=O)Cc2c-1nc1cc(F)c(C)c3c1c2[C@@H](O)CC3 (single isomer, unassigned) [Compound 3-35]	50.4 mL/min/kg	76.5 min	4.7 nM	20.2 mL/min/kg	61.8 min	0.46 nM	66.1 ×10⁻⁶ cm/s	11.1 ×10⁻⁶ cm/s											
CC[C@@]1(O)C(=O)OCc2c1cc1n(c2=O)Cc2c-1nc1cc(F)c(C)c3c1c2[C@](C)(NCCO)CC3.Cl [Compound 17-96, (1R,9S)-9-ethyl-5-fluoro-9-hydroxy-1-((2-hydroxyethyl)amino)-1,4-dimethyl-2,3,12,15-tetrahydrobenzo[de]pyrano[3′,4′:6,7]indolizino [1,2-b]quinoline-10,13(1H,9H)-dione hydrochloride]			22 nM			2.1 nM			82 min	47.1 mL/min/kg	17.5 min	71.3 mL/min/kg	62.6 ×10⁻⁶ cm/s	4.3 ×10⁻⁶ cm/s					
CC[C@@]1(O)C(=O)OCc2c1cc1n(c2=O)Cc2c-1nc1cc(F)c(C)c3c1c2[C@](C)(NC(=O)CO)CC3 [Compound 10-75, N-((1R,9S)-9-ethyl-5-fluoro-9-hydroxy-1,4-dimethyl-10,13-dioxo-1,2,3,9,10,12,13,15-octahydrobenzo[de]pyrano[3′,4′:6,7]indolizino[1,2-b]quino-lin-1-yl)-2-hydroxyacetamide]	40.8 mL/min/kg	94.4 min	467 nM	27.2 mL/min/kg	45.9 min	58.1 nM	46.8 ×10⁻⁶ cm/s	3.9 ×10⁻⁶ cm/s											
CC[C@@]1(O)C(=O)OCc2c1cc1n(c2=O)Cc2c-1nc1cc(F)c(C)c3c1c2[C@@](C)(NCCO)CC3.Cl [Compound 16-95, (1S,9S)-9-ethyl-5-fluoro-9-hydroxy-1-((2-hydroxyethyl)amino)-1,4-dimethyl-2,3,12,15-tetrahydrobenzo[de]pyrano[3′,4′:6,7]indolizino[1,2-b]quinoline-10,13(1H,9H)-dione hydrochloride]			13.7 nM			1.3 nM			130 min	29.6 mL/min/kg	49.1 min	25.4 mL/min/kg	63.1 ×10⁻⁶ cm/s	5.5 ×10⁻⁶ cm/s					
CC[C@@]1(O)C(=O)OCc2c1cc1n(c2=O)Cc2c-1nc1cc(F)c(C)c3c1c2[C@@H](N)CC3.CS(=O)(=O)O [Exatecan, (1S,9S)-1-amino-9-ethyl-5-fluoro-9-hydroxy-4-methyl-2,3,12,15-tetrahydro-benzo[de]pyrano [3′,4′:6,7]indolizino[1,2-b]quinoline-10,13(1H,9H)-dione methanesulfonate, reference compound]		65 min			106 min							11.7 mL/min/kg			59.3 mL/min/kg	6.2 nM	0.59 nM	37.2 ×10⁻⁶ cm/s	5.7 ×10⁻⁶ cm/s
CC[C@@]1(O)C(=O)OCc2c1cc1n(c2=O)Cc2c-1nc1cc(F)c(C)c3c1c2[C@@](C)(OCCO)CC3 (single isomer, unassigned) [Compound 14-91]	63.4 mL/min/kg	60.8 min	17.6 nM	46.5 mL/min/kg	26.8 min	1.4 nM	67.8 ×10⁻⁶ cm/s	5.6 ×10⁻⁶ cm/s											
CC[C@@]1(O)C(=O)OCc2c1cc1n(c2=O)Cc2c-1nc1cc(F)c(C)c3c1c2[C@H](O)CC3 (single isomer, unassigned) [Compound 3-34]	79.2 mL/min/kg	48.7 min	6 nM	32.1 mL/min/kg	38.8 min	0.59 nM	78.3 ×10⁻⁶ cm/s	8.2 ×10⁻⁶ cm/s											
CC[C@@]1(O)C(=O)OCc2c1cc1n(c2=O)Cc2c-1nc1cc(F)c(C)c3c1c2[C@](C)(O)CC3 (single isomer, unassigned) [Compound 13-85]	75.7 mL/min/kg	51 min	36.2 nM	58.3 mL/min/kg	21 min	2.6 nM	69.7 ×10⁻⁶ cm/s	6 ×10⁻⁶ cm/s											
CC[C@@]1(O)C(=O)OCc2c1cc1n(c2=O)Cc2c-1nc1cc(F)c(C)c3c1c2[C@@](C)(O)CC3 (single isomer, unassigned) [Compound 13-84]	112 mL/min/kg	34 min	5.9 nM	58.9 mL/min/kg	21 min	0.61 nM	64.4 ×10⁻⁶ cm/s	7.6 ×10⁻⁶ cm/s											
CC[C@@]1(O)C(=O)OCc2c1cc1n(c2=O)Cc2c-1nc1cc(F)c(C)c3c1c2[C@H](N)CCC3 (single isomer, unassigned) [Compound 7-60, methanesulfonate]	64.5 mL/min/kg	59.7 min	14.9 nM	40.8 mL/min/kg	30.6 min	2.1 nM													
CC[C@@]1(O)C(=O)OCc2c1cc1n(c2=O)Cc2c-1nc1cc(F)c(C)c3c1c2[C@@H](N)CCC3 (single isomer, unassigned) [Compound 7-59, methanesulfonate]	69.4 mL/min/kg	55.5 min	14.8 nM	33.7 mL/min/kg	37 min	2.9 nM													

From patent publication US12280121B2, “Immunoconjugates and methods” (Immunome, Inc., priority 2021, dated 2025)
